Laboratory results reported in patent US20220259235A1, “EGFR Inhibitor, Composition, and Preparation Method Therefor” (BETTA PHARMACEUTICALS CO., LTD, priority 2019, published 2022).

Legend:
[1] = Liver microsomal clearance test, monkey; type: in vitro ADME; settings: Monkey liver microsomes, 0.5 mg/mL, NADPH
Description: (§1) Test 3 Liver Microsomal Clearance Test
(§2) 1. Prepare 0.5 mg/mL liver microsome diluent containing K-butter and MgCl2:
(§3) 2.1 Take 356 μL of the liver microsome diluent prepared above and add it to the preset wells of the incubation plate, the number of multiple wells n=1, mark it as the incubation plate.
(§4) 2.2 Take 4 μL of the positive control compound Verapamil (50 μM) and the working solution of the test compound (200 μM) into the above incubation plate containing 356 μL of liver microsome diluent, and mix well (The dilution solvent from the stock solution to the working solution is a mixed solvent of acetonitrile: methanol: water=1:1:2, and the final concentration of DMSO is ≤0.5%),
(§5) 2.3 Place the incubation plate in a 37° C. thermostatic oscillator (at shaking speed of 100 rpm) for pre-incubation with 10 min.
(§6) 2.4 Add 40 μL of 10 mM NADPH (add 40 μL of K-buffer to the wells without NADPH) to each reaction well to start the reaction and start timing.
(§7) 3. Sample collection and treatment:
(§8) 3.1 After adding NADPH to start the reaction, immediately take out 50 μL of the sample and add it to the precipitation plate pre-added with 400 μL of stop solution, and shake on an oscillator at 600 rpm for 5 min at room temperature as a 0 min sample.
(§9) 3.2 At the predetermined time points of 5 min, 15 min and 45 min, take out 50 μL of sample from the incubation plate and add it to the precipitation plate. The subsequent steps were the same as the treatment of 0 min sample. 3.3 After balancing, centrifuge above precipitation plate at 3200 rpm for 10 min at 4° C.
(§10) 3.4 Take 50 μL of the supernatant after centrifugation and add it to pre-added 20% acetonitrile water at appropriate proportion, shake on an oscillator at 600 rpm for 2 min at room temperature, mix well, and put it into the LC-MS/MS sampler for sample injection.
(§11) Analysis of Experimental Data
1. […]

[2] = Liver microsomal clearance test, human; type: in vitro ADME; settings: Human liver microsomes, 0.5 mg/mL, NADPH
Description: as §1, §2, §3, §4, §5, §6, §7, §8, §9, §10, §11
1. […]

[3] = tested on: A431 EGFR wild-type cell line; assay: A431 EGFR wild-type cell proliferation assay (CellTiter Glo, 72 h); type: cell-based; settings: Homo sapiens, A-431, CTG, read-out: A431 EGFR WT IC50
Description: (§12) Cell line: Ba/F3 cells with stable overexpression of Δ19del/T790M/C797S or L858R/T790M/C797S mutant genes, named Ba/F3-Δ19del/T790M/C797S and Ba/F3-L858R/T790M/C797S, and A431 EGFR wild-type cell line.
(§13) RPMI 1640 and 10% FBS and 1% PS; _EM, 10% PBS and 1% PS
(§14) a) Dilute the test compound (20 mM stock solution) to 10 mM with 100% DMSO as the starting concentration, and then serially dilute 3 times with a “9+0” concentration in 96-well dilution plate (Cat #P-05525, Labcyte);
(§15) b) Dilute compound solution thereof to 1:100 in medium to prepare 10-fold working solution;
(§16) a) Centrifuge the growth cells in logarithmic phase at 1000 rpm for 5 minutes, resuspend the cells in culture medium, and then count the cells;
(§17) b) Inoculate the cells into a 96-well cell culture plate with a density of 2000 cells/well;
(§18) a) The compound prepared in Step 2 was added to a cell plate with 15 μL per well at final concentrations of 1000, 333, 111.1, 37, 12.3, 4.1, 1.4, 0.5, 0.2, and 0 nM. The final concentration of DMSO was 0.1%. The blank control well is with medium (0.1% DMSO).
(§19) b) Incubate cells in an incubatorother 72 hours;
(§20) a) Take out the 96-well cell culture plate and add 50 μl CTG reagent (CellTiter Glo kit, promega, Cat #G7573);
(§21) b) Shake the plate for 2 minutes and let cool at room temperature for 10 minutes,
(§22) c) Read luminous signal value with Perkin Elmer reader.
as §11
(§23) The data were analyzed by GraphPad Prism 6.0 software to obtain the fitting curve of compound activity.
(§24) Fining compound IC50 from nonlinear regression equation:
(§25) Y=Min+(Max−Min)/(1+10^((LogIC50−X)*slope));
(§26) X: Logarithm of compound concentration; Y: luminous signal
(§27) As illustrated in examples, IC50 value is within the following range for the compound of the present invention: “A” represents “IC50≤50 nM”; “B” represents “50 nM<IC50<100 nM”.

[4] = target: Ba/F3-Δ19del/T790M/C797S (Homo sapiens, UniProt P00533, T790M/C797S, cells depend on it, form not given); assay: Ba/F3-Δ19del/T790M/C797S cell proliferation assay (CellTiter Glo, 72 h); type: cell-based; settings: CTG, numeric values, read-out: BaF3 Δ19del/T790M/C797S IC50
Chain of Ba/F3-Δ19del/T790M/C797S (P00533 with tags, fused parts or gaps DEL746-750/T790M/C797S, form open): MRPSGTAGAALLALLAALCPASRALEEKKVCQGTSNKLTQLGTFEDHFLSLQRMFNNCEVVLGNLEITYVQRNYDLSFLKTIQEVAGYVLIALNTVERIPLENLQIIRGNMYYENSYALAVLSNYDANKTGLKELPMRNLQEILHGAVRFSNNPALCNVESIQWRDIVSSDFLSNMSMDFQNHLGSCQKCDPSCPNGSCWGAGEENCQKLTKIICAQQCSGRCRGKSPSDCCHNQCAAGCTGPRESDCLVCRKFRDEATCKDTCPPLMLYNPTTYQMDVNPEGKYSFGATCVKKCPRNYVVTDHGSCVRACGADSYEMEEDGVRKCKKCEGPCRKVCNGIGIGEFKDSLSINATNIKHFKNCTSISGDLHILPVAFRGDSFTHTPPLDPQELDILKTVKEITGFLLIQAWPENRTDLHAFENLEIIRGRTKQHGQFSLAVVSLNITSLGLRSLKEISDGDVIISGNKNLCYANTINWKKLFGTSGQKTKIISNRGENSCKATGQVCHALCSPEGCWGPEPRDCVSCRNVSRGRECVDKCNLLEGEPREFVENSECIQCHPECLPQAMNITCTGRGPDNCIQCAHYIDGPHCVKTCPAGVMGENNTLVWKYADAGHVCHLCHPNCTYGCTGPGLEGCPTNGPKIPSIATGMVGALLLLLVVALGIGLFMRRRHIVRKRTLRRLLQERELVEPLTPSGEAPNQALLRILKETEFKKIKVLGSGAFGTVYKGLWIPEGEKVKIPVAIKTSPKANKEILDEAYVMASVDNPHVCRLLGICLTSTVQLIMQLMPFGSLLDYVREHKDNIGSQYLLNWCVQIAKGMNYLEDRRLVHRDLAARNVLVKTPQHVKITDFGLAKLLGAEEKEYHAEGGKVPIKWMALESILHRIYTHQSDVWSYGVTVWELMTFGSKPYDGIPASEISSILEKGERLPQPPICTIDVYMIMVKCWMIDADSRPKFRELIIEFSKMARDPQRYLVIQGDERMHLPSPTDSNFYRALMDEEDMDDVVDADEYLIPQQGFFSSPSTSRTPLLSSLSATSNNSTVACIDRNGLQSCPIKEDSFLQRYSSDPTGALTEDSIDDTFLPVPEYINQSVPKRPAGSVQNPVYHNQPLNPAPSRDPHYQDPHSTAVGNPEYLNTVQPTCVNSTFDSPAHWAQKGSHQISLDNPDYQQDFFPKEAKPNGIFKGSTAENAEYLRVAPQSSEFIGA
Description: as §12, §13, §14, §15, §16, §17, §18, §19, §20, §21, §22, §11, §23, §24, §25, §26, §27

[5] = Liver microsomal clearance test, dog; type: in vitro ADME; settings: Dog liver microsomes, 0.5 mg/mL, NADPH
Description: as §1, §2, §3, §4, §5, §6, §7, §8, §9, §10, §11
1. […]

[6] = Liver microsomal clearance test, mice; type: in vitro ADME; settings: Mice liver microsomes, 0.5 mg/mL, NADPH
Description: as §1, §2, §3, §4, §5, §6, §7, §8, §9, §10, §11
1. […]

[7] = target: Ba/F3-L858R/T790M/C797S (Homo sapiens, UniProt P00533, T790M/C797S/L858R, cells depend on it); assay: Ba/F3-L858R/T790M/C797S cell proliferation assay (CellTiter Glo, 72 h); type: cell-based; settings: CTG, numeric values, read-out: BaF3 L858R/T790M/C797S IC50
Chain of Ba/F3-L858R/T790M/C797S (P00533 whole entry T790M/C797S/L858R): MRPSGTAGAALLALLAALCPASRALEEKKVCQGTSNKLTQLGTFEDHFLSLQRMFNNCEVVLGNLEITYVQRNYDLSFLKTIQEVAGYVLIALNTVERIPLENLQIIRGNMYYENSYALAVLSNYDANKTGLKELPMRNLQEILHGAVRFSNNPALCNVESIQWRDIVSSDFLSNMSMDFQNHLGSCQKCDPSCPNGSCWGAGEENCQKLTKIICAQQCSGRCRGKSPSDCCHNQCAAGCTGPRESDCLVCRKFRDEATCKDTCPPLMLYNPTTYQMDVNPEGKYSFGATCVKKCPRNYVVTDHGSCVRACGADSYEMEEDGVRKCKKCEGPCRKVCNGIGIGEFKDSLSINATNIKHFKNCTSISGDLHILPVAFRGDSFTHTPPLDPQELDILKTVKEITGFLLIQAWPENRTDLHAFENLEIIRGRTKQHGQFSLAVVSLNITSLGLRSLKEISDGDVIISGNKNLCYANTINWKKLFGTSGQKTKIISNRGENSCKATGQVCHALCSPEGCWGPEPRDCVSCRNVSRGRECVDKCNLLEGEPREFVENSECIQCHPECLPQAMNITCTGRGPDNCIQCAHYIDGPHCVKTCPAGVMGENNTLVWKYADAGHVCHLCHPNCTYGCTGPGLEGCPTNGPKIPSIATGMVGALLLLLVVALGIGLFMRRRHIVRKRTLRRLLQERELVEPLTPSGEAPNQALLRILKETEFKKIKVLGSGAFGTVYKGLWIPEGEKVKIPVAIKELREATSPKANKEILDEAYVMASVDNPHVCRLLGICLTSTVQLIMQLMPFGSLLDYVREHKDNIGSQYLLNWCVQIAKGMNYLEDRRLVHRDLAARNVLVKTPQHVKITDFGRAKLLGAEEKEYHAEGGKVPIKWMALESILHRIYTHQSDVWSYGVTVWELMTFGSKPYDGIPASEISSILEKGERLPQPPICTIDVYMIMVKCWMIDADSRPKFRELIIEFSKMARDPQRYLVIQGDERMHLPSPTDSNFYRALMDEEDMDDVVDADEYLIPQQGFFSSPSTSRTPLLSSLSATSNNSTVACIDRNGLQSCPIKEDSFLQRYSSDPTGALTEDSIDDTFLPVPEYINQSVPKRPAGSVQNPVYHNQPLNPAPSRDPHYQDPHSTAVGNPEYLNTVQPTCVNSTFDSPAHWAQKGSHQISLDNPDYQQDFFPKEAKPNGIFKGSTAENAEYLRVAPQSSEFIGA
Description: as §12, §13, §14, §15, §16, §17, §18, §19, §20, §21, §22, §11, §23, §24, §25, §26, §27

[8] = target: T1, hERG protein (Homo sapiens, UniProt Q12809); assay: hERG IC50 test (tracer/membranes fluorescence polarization); type: binding; settings: hERG membranes and tracer, read-out: IC50 results of hERG protein to compound
T1 construct: purchased
T1 sequence (Q12809 whole entry): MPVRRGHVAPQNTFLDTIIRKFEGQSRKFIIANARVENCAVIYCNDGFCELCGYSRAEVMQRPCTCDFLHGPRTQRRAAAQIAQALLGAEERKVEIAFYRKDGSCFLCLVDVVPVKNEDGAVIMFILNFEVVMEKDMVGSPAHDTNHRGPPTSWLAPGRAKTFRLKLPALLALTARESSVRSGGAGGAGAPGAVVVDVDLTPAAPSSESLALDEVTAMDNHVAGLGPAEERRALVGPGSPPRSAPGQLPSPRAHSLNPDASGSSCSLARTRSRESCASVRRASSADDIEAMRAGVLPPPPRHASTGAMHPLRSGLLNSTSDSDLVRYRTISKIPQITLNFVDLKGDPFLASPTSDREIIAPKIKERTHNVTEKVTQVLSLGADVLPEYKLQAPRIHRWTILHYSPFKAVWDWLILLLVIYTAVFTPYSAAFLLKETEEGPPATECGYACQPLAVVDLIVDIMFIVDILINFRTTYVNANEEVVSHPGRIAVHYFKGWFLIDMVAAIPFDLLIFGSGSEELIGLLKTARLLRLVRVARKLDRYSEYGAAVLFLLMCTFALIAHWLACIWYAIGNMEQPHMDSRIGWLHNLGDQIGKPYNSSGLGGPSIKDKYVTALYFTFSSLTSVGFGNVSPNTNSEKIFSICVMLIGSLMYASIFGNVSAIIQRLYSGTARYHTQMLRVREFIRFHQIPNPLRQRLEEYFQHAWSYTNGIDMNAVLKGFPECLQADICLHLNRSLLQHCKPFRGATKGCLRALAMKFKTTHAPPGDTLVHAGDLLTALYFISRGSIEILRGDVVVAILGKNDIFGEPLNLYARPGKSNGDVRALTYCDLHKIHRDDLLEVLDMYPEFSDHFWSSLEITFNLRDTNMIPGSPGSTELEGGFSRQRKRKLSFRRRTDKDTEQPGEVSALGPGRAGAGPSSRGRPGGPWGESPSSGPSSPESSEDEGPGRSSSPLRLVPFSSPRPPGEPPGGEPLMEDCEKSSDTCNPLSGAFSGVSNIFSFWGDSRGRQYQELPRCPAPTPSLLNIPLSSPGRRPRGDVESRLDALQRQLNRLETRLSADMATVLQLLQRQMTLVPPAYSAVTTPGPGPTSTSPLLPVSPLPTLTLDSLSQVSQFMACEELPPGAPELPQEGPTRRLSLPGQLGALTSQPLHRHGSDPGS
Description: 1. Thaw hERG kits (Tracer, E-4031 and Membranes) at room temperature;
2. Add 10 μL of positive compound E-4031 and 10 μL of test compound (10 mM) to 384 well plate (Corning, Art. No. 3658);
3. E-4031 is sequentially 5-fold diluted by pure water (10 concentration points in total), and the test compound is sequentially 5-fold diluted by DMSO (10 concentration points in total).
4. Take 1 μL of all gradient concentrations and add them in parallel to the wells containing 24 μL Assay buffer, and dilute 25 times (take 3 μL of the maximum concentration of E-4031 and add it to 72 μL Assay buffer).
5. Add 10 μL Membranes to another black 384-well plate (Coming, Art.4511).
6. Take 5 μL of 25-fold diluted working solution of positive and test compounds, and add it to above-mentioned plate with 10 μL Membranes, 2 copies at each concentration.
7. Negative control: Add 5 μL Assay buffer to the well with 10 μL Membranes, 8 copies in parallel;
8. Positive control: Add 5 μL E-4031 (120 μM) to the well with 10 μL Membranes, 8 copies in parallel;
9. […]
10. Before measuring the fluorescence polarization, cover the analysis plate to protect the reagents from light and evaporation, and incubate at room temperature (20-25° C.) for 2 hours.
11. Read fluorescence polarization in PerkinElmer EnVision® Multilabel after incubation; […]

[9] = Liver microsomal clearance test, rat; type: in vitro ADME; settings: Rat liver microsomes, 0.5 mg/mL, NADPH
Description: as §1, §2, §3, §4, §5, §6, §7, §8, §9, §10, §11
1. […]

For `COc1cc(N2CCC(N3CCN(C)CC3)CC2)c(C)cc1Nc1ncc(Br)c(Nc2ccc3nccnc3c2P(C)(C)=O)n1` [A, reference compound], the “Instrinsic clearance of liver microsomal protein, CLint” value (“Instrinsic clearance” for short) [1] was 65.4 μL/min/mg proteins, the “Instrinsic clearance” value [2] was 17.4 μL/min/mg proteins and the IC50 [3] was 375 nM. The GI50 [4] was 22 nM, the “Instrinsic clearance” value [5] was 15.6 μL/min/mg proteins and the “Instrinsic clearance” value [6] was 16.4 μL/min/mg proteins. For the same compound, the GI50 [7] was 16.7 nM, the IC50 [8] was 13500 nM and the “Instrinsic clearance” value [9] was 22 μL/min/mg proteins.
